The inhibition is the change of the read-out against control, counted positive when it falls.

The text below walks through data of patent US8846704B2, “Thiopyrimidine-based compounds and uses thereof” (YM Biosciences Austraila Pty Ltd, priority 2007, dated 2014).

Holding throughout (format): biochemical
One assay concerns the target T1, FLT-3 tyrosine kinase (Homo sapiens, UniProt P36888).
T1 construct: purchased Upstate Cell Signalling Solutions, CA, USA 14-500
T1 sequence (P36888 27-993): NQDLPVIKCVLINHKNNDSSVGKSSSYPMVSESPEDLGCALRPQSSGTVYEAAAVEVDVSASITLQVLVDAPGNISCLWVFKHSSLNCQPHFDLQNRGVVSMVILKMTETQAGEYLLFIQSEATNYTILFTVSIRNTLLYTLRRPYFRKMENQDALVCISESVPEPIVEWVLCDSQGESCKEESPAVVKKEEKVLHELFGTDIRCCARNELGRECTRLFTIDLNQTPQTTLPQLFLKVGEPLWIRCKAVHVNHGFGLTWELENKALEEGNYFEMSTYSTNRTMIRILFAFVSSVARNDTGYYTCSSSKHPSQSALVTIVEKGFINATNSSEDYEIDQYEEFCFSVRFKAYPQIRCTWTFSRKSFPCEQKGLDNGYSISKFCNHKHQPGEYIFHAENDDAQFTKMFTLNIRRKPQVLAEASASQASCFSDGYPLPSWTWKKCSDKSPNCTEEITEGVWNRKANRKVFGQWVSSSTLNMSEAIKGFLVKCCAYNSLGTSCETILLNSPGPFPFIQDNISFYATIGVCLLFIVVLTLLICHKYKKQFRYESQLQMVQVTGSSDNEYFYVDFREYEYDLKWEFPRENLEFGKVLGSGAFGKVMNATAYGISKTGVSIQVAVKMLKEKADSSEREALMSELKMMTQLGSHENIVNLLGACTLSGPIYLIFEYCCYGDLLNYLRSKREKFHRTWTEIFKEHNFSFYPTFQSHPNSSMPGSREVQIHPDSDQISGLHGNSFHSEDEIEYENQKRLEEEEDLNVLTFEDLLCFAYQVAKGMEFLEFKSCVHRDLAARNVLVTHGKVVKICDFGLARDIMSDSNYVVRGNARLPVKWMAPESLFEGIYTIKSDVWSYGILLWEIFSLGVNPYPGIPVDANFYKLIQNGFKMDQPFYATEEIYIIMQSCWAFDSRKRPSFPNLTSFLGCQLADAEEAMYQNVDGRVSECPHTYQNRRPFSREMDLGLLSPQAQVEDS
Kind of assay: Alphascreen tyrosine kinase enzyme assay, FLT-3. The conditions noted are these: FLT3; read-out: FMS, FLT3, or HCK IC50_nM (FLT3). The protocol:
For screening purposes, compounds (in 100% DMSO) were warmed at 37 degrees for at least 20 minutes before use. A […] stock was initially made in assay buffer, where the final concentration of DMSO was 0.3%. The stocks were then diluted in 384 well Optiplates (Packard) where the final concentration of the compound was […].
FLT-3 tyrosine kinase enzyme was purchased from Upstate Cell Signalling Solutions, CA, USA (flt-3 catalog #: 14-500).
Kinase assays were performed in 384 well Optiplates (Packard) using an Alphascreen Protein Tyrosine Kinase PY100 detection kit The compounds were pre-incubated with affinity purified PTK domain in the presence of phosphotyrosine assay buffer (10 mM HEPES, pH 7.5, 100 mM MgCl2, 25 mM NaCl, […] and 0.1% Tween 20) for 20 minutes. The compounds were then incubated with substrate in the presence of ATP. The substrate used was susbtrate-1 with the sequence biotin-EGPWLEEEEEAYGWMDF-NH2 [SEQ. ID. NO. 13] (final concentration […]). For HCK 80 μm ATP was used and incubated for 60 minutes. Alphascreen phosphotyrosine acceptor beads followed by streptavidin donor beads at a concentration of 1/100 in stop buffer were added to each well under subdued light and incubated for 2-3 hours., The Alphascreen plates were read on a Packard Fusion Alpha instrument.

For the next assay, the target named is T2, Blk(m) (Mus musculus, UniProt P16277).
T2 construct: purchased Upstate Biotechnology (Dundee, UK), KinaseProfiler service
T2 sequence (P16277 whole entry): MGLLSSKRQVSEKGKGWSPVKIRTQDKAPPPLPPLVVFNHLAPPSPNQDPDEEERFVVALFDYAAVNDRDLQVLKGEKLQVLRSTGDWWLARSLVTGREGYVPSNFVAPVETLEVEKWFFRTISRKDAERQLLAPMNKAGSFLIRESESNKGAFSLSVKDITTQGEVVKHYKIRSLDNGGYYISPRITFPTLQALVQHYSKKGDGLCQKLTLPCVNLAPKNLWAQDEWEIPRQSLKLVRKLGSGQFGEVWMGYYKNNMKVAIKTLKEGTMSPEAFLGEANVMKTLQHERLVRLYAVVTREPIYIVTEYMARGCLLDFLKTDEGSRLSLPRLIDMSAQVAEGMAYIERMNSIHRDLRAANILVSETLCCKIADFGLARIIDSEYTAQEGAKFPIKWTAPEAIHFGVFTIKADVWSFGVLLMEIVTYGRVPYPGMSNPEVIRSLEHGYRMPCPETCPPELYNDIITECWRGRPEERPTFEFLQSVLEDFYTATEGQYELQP
Kind of assay: Upstate KinaseProfiler enzyme assay, Blk. The conditions noted are these: 500 nM compound; read-out: Percent inhibition at 500 nM Blk(m). The protocol:
(§1) Further enzyme assays were conducted at Upstate Biotechnology (Dundee, UK) in the KinaseProfiler™ Assay system.
(§2) The general protocol is as follows. All kinases are pre-diluted to a 10× working concentration prior to addition into the assay. The composition of the dilution buffer for the kinases is 20 mM MOPS pH 7.0, 1 mM EDTA, 0.1% β-mercaptoethanol, 0.01% Brij-35, 5% glycerol, 1 mg/ml BSA. All substrates are dissolved and diluted to working stocks in de-ionised water.

The target of another assay is T3, Bmx(h) (Homo sapiens, UniProt P51813).
T3 construct: purchased Upstate Biotechnology (Dundee, UK), KinaseProfiler service
T3 sequence (P51813 1-675): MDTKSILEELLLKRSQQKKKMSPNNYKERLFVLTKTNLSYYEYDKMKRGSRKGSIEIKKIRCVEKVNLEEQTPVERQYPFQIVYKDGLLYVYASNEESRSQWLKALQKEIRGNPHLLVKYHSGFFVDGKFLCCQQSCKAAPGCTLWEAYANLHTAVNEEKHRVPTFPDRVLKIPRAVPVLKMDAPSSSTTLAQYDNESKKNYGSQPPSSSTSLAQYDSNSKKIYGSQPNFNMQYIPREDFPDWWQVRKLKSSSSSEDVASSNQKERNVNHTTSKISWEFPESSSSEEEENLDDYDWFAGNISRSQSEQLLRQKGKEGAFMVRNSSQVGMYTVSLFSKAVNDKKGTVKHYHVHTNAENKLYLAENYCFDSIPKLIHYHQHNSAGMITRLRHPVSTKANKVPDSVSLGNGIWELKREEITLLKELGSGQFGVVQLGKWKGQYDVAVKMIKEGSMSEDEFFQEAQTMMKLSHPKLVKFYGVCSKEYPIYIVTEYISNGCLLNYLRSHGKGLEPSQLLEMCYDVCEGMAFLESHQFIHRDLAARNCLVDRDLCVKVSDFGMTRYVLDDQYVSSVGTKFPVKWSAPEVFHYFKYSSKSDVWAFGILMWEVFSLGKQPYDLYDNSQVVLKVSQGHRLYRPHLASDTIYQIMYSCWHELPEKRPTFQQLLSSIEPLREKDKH
Kind of assay: Upstate KinaseProfiler enzyme assay, Bmx. The note with it: 500 nM compound; read-out: Percent inhibition at 500 nM Bmx(h). The protocol: as §1, §2

As to `OCc1cccc(Sc2ccnc(Nc3ccc(N4CCOCC4)cc3)n2)c1` [Compound 62, (3-(2-(4-Morpholinophenylamino)pyrimidin-4-ylthio)phenyl)methanol], at FLT-3 tyrosine kinase, the IC50 was < 100 nM.

With `OCc1ccc(Sc2ccnc(Nc3ccc(N4CCOCC4)cc3)n2)cc1` [Compound 67, (4-(2-(4-morpholinophenylao)pyrimidin-4-ylthio)phenyl)methanol], the IC50 at FLT-3 tyrosine kinase is < 100 nM.

For `N#CCNCc1cccc(Sc2ccnc(Nc3ccc(N4CCOCC4)cc3)n2)c1` [Compound 68, 2-(3-(2-(4-morpholinophenylao)pyrimidin-4-ylthio)benzylao)acetonitrile], at FLT-3 tyrosine kinase, the IC50 is < 500 nM.

As to `C=CC(=O)Nc1ccc(Sc2nc(Nc3ccc(N4CCC(CO)CC4)cc3)ncc2C)cc1` [Compound 286, N-(4-(2-(4-(4-(hydroxymethyl)piperidin-1-yl)phenylao)-5-methylpyrimidin-4-ylthio)phenyl)acrylamide], the inhibition at 0.5 µM was 88% at Blk(m) and 95% on Bmx(h).

For the compound `C=CC(=O)Nc1ccc(Sc2nc(Nc3cccc(NS(C)(=O)=O)c3)ncc2C)cc1` [Compound 288, N-(4-(5-methyl-2-(3-(methylsulfonamido)phenylao)pyrimidin-4-ylthio)phenyl)acrylamide], the values for the inhibition at 0.5 µM at Blk(m) and on Bmx(h) were 99% and 100%, respectively.

Consider `C=CC(=O)Nc1ccc(Sc2nc(Nc3ccc(OCCN4CCOCC4)cc3)ncc2C)cc1` [Compound 290, N-(4-(5-methyl-2-(4-(2-morpholinoethoxy)phenylao)pyrimidin-4-ylthio)phenyl)acrylamide], for which the inhibition at 0.5 µM on Blk(m) and on Bmx(h) was 97% in each case.

In the case of `C=CC(=O)Nc1ccc(Sc2nc(Nc3ccc(OCCCN(CC)CC)cc3)ncc2C)cc1` [Compound 291, N-(4-(2-(4-(3-(diethylao)propoxy)phenylao)-5-methylpyrimidin-4-ylthio)phenyl)acrylamide], the inhibition at 0.5 µM at Blk(m) and on Bmx(h) was 99% in each case.

Take `C=CC(=O)Nc1ccc(Sc2nc(Nc3ccc(OC)c(NS(C)(=O)=O)c3)ncc2C)cc1` [Compound 293, N-(4-(2-(4-methoxy-3-(methylsulfonamido)phenylao)-5-methylpyrimidin-4-ylthio)phenyl)acrylamide]: the inhibition at 0.5 µM at Blk(m) worked out at 30%; at Bmx(h) it was 79%.

For the compound `O=C(/C=C/Cl)Nc1cccc(Sc2ccnc(Nc3ccc(N4CCOCC4)cc3)n2)c1` [Compound 340, (E)-3-chloro-N-(3-(2-(4-morpholinophenylao)pyrimidin-4-ylthio)phenyl)acrylamide], the inhibition at 0.5 µM worked out at 99% at Blk(m) and 92% at Bmx(h).

As for `C=CC(=O)Nc1ccc(Sc2ccnc(Nc3ccc(S(N)(=O)=O)c(OC)c3)n2)cc1` [Compound 374, N-(4-(2-(3-methoxy-4-sulfamoylphenylao)pyrimidin-4-ylthio)phenyl)acrylamide], the inhibition at 0.5 µM worked out at 96% on Blk(m) and 91% on Bmx(h).
